# “And” between values parts separate entries of the source, which are not always exact repeats. Equal values may be shown once. The source made the active and inactive calls.
# Columns and labels:
# [1] = molecular target: DNA dC->dU-editing enzyme APOBEC-3A (Homo sapiens, UniProt P31941); assay: SAR analysis of small molecule inhibitors of APOBEC3A DNA Deaminase via a fluorescence-based single-stranded DNA deaminase assay.; type: functional; settings: read-out: IC50_Mean
# [2] = molecular target: DNA dC->dU-editing enzyme APOBEC-3G (Homo sapiens, UniProt Q9HC16); assay: APOBEC3G deaminase inhibitors, SAR follow-up, biochemical, fluorescence, single-stranded DNA substrate (AID 602136); type: functional; settings: read-out: IC50_Mean
# [3] = molecular target: T1, Apoptotic protease-activating factor 1 (Homo sapiens, UniProt O14727); assay: SAR analysis of small molecule Activators of Apaf-1 in a Fluorescent assay.; type: functional; settings: read-out: EC50_Mean
# T1 sequence (O14727 whole entry): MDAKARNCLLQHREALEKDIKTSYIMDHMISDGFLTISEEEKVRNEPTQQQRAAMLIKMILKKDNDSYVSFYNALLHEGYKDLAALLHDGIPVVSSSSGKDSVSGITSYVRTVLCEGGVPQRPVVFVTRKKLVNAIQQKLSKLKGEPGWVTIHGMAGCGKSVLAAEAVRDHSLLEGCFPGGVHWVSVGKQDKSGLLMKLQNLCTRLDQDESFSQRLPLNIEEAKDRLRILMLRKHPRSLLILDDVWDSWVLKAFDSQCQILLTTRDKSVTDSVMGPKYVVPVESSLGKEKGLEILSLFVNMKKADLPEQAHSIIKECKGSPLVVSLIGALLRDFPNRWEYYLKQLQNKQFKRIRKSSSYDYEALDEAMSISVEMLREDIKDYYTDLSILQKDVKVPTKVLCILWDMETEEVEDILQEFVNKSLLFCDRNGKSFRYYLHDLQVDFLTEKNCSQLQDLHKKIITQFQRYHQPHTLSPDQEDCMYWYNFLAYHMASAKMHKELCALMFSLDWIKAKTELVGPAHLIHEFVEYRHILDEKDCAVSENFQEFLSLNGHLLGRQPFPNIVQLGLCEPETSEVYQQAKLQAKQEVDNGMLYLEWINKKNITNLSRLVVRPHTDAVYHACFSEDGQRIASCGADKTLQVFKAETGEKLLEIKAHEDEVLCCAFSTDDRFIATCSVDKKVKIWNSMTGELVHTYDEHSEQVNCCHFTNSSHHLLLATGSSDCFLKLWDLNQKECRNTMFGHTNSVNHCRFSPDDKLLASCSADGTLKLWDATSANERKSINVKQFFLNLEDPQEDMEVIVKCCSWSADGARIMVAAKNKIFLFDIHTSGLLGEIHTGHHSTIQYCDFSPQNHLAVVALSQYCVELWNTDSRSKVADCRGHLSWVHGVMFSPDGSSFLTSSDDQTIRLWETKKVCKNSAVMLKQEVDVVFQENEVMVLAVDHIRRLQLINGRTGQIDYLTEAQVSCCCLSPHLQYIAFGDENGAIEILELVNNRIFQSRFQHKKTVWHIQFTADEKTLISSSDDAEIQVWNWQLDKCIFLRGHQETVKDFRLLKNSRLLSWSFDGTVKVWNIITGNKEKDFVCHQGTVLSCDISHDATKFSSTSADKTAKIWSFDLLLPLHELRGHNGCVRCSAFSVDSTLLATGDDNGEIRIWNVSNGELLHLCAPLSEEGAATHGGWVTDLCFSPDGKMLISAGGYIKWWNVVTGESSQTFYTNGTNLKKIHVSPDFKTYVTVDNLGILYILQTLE
# [4] = molecular target: T1, Apoptotic protease-activating factor 1; assay: SAR analysis of small molecule Activators of Apaf-1 in a Fluorescent assay - set 2.; type: functional; settings: read-out: EC50_Mean
# [5] = SAR analysis of small molecule activators of Apaf-1 using a LZ-Caspase-9/Caspase-3 Fluorescent Selectivity assay - Set 2.; type: functional; settings: read-out: EC50_Mean
# [6] = molecular target: Luciferin 4-monooxygenase (Photinus pyralis, UniProt P08659); assay: firefly luciferase enzyme inhibitors, dose response, biochemical, dry powder samples, plate reader (AID 588451)
# H4 [7] = assay: Inhibitors of Prion Protein 5' UTR mRNA Measured in Cell-Based System Using Plate Reader - 2078-01_Inhibitor_Dose_DryPowder_Activity. [Related pubchem assays (depositor defined):AID488894]; type: functional; settings: Homo sapiens
# H4 [8] = assay: Amyloid Precursor 5' UTR neuroblastoma cell reporter line Measured in Cell-Based System Using Plate Reader - 2078-04_Inhibitor_Dose_DryPowder_Activity. [Related pubchem assays (depositor defined):AID488894]; type: functional; settings: Homo sapiens
# Tumor necrosis factor = Tumor necrosis factor (Homo sapiens, UniProt P01375); assay: TNFa-triggered NF-kB activation inhibitors, SAR follow-up, cell-based, revised (AID 2337); type: functional
# HEK293 = assay: cells; settings: Homo sapiens;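 note: cells exposed to compound for 14 hours overnight before viability readout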
# [9] = molecular target: T2, Nucleotide-binding oligomerization domain-containing protein 1 (Homo sapiens, UniProt Q9Y239); assay: NOD1 signaling inhibitors, SAR follow-up, revised (AID 2333); type: functional
# T2 sequence (Q9Y239 whole entry): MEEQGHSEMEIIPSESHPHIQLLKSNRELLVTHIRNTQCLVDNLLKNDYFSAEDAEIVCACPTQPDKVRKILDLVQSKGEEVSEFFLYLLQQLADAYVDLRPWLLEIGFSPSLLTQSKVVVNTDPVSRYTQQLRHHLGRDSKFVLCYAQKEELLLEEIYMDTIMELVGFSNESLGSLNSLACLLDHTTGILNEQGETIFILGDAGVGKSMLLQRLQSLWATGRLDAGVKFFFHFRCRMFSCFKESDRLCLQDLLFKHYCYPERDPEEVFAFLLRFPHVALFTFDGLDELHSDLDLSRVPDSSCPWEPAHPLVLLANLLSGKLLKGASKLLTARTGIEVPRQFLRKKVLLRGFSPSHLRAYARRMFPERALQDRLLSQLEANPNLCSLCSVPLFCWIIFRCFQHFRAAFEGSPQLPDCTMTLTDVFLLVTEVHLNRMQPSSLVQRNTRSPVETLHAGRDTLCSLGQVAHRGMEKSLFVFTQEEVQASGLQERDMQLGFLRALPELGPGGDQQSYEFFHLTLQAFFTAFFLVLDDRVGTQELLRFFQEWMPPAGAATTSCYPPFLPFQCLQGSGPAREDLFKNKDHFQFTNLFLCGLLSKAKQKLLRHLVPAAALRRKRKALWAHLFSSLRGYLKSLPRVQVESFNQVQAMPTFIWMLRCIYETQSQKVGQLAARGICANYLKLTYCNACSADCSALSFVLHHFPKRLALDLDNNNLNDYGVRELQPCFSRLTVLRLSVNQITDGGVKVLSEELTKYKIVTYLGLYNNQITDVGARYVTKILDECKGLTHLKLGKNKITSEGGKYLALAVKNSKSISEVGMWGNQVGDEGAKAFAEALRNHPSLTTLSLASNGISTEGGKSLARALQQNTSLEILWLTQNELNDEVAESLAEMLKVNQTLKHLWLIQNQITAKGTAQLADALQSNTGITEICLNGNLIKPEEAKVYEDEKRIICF
# H4 [10] = assay: inhibitors of control reporter signal in H4 cells – cell-based, plate reader, dry powder samples, counter-screen for prion reporter project, dose response (AID 540255); type: functional; settings: Homo sapiens
# [11] = molecular target: Casein kinase I isoform alpha (Homo sapiens, UniProt P48729); type: functional
# [12] = molecular target: G protein-coupled receptor kinase 5 (Homo sapiens, UniProt P34947); assay: Navigating the Kinome. Panel member name: GPRK5; type: functional
# [13] = molecular target: Dual specificity protein kinase CLK4 (Homo sapiens, UniProt Q9HAZ1); type: functional
# [14] = molecular target: Glycogen synthase kinase-3 beta (Homo sapiens, UniProt P49841); type: functional;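 note: value comes from a broad kinome profiling panel, with GSK3B as the panel member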
# [15] = molecular target: Interleukin-1 receptor-associated kinase 4 (Homo sapiens, UniProt Q9NWZ3); type: functional
# [16] = molecular target: Cyclin-dependent kinase 7 (Homo sapiens, UniProt P50613); type: functional;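 note: value comes from a kinome-wide kinase profiling panel in which CDK7 is one member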
# [17] = molecular target: MAP kinase-interacting serine/threonine-protein kinase 2 (Homo sapiens, UniProt Q9HBH9); type: functional
# [18] = molecular target: cAMP-dependent protein kinase catalytic subunit alpha (Homo sapiens, UniProt P17612); type: functional
# [19] = molecular target: Cell division cycle 7-related protein kinase (Homo sapiens, UniProt O00311); type: functional;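 note: value obtained from a kinome-wide kinase panel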
# Sequence of Cell division cycle 7-related protein kinase (O00311 whole entry): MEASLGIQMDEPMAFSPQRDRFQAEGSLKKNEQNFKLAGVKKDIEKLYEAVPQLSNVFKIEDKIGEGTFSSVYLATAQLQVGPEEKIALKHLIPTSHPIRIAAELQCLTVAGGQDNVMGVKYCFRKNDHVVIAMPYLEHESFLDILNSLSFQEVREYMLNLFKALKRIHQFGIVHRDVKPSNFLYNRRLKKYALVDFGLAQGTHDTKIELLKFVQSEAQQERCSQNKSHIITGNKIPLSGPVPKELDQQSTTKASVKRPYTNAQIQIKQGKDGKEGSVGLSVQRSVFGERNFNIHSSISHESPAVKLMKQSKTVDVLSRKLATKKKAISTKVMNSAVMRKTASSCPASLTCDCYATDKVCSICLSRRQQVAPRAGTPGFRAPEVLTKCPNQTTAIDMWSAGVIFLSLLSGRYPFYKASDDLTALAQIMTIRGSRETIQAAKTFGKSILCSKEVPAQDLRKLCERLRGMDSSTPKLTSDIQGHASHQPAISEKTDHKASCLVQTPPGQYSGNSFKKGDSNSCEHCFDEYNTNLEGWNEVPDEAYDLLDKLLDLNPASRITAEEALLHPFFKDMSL
# [20] = molecular target: Homeodomain-interacting protein kinase 2 (Homo sapiens, UniProt Q9H2X6); type: functional;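 note: measured within a kinome-wide kinase profiling panel, HIPK2 being one panel member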
# Sequence of Homeodomain-interacting protein kinase 2 (Q9H2X6 whole entry): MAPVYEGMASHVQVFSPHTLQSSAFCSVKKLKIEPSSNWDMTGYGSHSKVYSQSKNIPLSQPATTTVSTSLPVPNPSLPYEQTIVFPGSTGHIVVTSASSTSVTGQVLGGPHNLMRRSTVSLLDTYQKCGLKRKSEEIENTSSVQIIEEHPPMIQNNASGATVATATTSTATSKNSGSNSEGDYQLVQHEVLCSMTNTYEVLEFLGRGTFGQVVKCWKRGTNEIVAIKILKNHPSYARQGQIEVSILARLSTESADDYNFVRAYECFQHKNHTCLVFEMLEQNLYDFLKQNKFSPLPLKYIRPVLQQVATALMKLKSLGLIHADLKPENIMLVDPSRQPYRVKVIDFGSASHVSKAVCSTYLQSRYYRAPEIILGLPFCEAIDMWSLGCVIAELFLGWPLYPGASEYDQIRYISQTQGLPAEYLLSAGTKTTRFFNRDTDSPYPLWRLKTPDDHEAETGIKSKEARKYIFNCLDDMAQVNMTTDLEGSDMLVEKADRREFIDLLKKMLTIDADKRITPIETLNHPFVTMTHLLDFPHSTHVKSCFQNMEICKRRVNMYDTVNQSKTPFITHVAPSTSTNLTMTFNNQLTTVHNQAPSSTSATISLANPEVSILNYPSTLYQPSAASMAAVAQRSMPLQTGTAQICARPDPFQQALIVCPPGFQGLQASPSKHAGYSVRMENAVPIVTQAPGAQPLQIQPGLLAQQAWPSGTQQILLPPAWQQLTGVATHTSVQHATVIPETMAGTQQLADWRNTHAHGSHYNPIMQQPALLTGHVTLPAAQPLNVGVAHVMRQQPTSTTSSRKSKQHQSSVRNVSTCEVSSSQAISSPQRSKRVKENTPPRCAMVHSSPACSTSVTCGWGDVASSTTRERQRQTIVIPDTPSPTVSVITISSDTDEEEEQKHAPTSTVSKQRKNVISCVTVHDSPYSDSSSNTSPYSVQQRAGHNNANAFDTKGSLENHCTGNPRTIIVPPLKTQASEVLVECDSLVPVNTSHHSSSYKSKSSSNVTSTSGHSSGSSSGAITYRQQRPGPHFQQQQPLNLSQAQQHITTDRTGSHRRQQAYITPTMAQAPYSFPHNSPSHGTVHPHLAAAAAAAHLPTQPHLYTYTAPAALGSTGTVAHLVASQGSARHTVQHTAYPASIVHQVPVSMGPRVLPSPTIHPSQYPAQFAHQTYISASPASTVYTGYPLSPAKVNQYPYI
# [21] = molecular target: Mitogen-activated protein kinase kinase kinase kinase 4 (Homo sapiens, UniProt O95819); type: functional
# Sequence of Mitogen-activated protein kinase kinase kinase kinase 4 (O95819 whole entry): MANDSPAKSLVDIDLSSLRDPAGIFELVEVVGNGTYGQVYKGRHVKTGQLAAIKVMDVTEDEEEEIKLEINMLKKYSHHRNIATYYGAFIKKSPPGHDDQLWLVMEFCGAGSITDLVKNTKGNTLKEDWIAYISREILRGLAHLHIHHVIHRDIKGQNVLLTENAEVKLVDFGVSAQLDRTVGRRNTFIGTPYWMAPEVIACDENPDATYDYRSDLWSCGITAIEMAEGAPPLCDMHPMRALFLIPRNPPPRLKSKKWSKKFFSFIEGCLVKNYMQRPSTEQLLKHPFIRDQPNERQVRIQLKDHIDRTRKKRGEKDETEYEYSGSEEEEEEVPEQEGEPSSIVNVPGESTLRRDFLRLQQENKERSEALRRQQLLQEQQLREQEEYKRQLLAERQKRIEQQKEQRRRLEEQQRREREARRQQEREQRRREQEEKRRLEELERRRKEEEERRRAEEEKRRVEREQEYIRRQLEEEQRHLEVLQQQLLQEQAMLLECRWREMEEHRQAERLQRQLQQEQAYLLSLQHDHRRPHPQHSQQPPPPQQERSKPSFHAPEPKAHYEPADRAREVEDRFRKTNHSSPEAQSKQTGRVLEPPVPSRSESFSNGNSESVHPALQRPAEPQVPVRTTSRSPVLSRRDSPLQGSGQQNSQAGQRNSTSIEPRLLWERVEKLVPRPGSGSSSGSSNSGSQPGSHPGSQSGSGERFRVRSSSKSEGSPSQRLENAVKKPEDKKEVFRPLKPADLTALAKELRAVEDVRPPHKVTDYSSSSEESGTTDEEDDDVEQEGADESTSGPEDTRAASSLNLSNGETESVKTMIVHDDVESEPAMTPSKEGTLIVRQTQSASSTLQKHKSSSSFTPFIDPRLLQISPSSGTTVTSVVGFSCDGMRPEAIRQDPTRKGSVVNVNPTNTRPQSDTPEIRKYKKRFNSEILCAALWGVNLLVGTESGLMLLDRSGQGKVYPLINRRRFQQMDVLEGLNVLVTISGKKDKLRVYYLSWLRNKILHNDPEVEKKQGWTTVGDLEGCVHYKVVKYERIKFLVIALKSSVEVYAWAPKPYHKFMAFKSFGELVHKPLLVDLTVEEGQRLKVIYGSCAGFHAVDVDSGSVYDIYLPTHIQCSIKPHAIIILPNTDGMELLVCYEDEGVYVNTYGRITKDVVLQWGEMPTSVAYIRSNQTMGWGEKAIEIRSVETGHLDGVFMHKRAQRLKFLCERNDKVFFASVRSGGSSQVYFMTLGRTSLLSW
# [22] = molecular target: Serine/threonine-protein kinase pim-1 (Homo sapiens, UniProt P11309); type: functional
# [23] = molecular target: Cyclin-dependent kinase 9 (Homo sapiens, UniProt P50750); type: functional;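 note: value from the CDK9 entry of a kinome-spanning kinase panel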
# Sequence of Cyclin-dependent kinase 9 (P50750 whole entry): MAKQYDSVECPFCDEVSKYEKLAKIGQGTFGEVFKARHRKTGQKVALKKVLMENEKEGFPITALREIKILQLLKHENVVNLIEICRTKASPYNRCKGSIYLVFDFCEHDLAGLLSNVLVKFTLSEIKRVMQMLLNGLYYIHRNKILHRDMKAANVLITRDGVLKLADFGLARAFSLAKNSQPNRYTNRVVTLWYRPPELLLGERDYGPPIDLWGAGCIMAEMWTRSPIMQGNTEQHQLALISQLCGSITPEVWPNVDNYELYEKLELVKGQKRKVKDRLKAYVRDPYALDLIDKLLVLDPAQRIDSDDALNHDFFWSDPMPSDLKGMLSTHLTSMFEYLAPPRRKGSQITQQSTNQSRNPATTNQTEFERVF
# [24] = molecular target: Tyrosine-protein kinase Blk (Homo sapiens, UniProt P51451); type: functional;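 note: obtained as one member of a kinome-wide kinase assay panel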
# [25] = molecular target: Mitogen-activated protein kinase kinase kinase kinase 2 (Homo sapiens, UniProt Q12851); type: functional;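 note: measured as one member of a kinome-wide kinase panel, with MAP4K2 as the panel entry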
# [26] = molecular target: Mitogen-activated protein kinase kinase kinase kinase 5 (Homo sapiens, UniProt Q9Y4K4); type: functional;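 note: measured as one member of a kinome-spanning kinase panel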
# [27] = molecular target: Mast/stem cell growth factor receptor Kit (Homo sapiens, UniProt P10721); type: functional;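 note: KIT entry within a kinase panel assay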
# Sequence of Mast/stem cell growth factor receptor Kit (P10721 whole entry): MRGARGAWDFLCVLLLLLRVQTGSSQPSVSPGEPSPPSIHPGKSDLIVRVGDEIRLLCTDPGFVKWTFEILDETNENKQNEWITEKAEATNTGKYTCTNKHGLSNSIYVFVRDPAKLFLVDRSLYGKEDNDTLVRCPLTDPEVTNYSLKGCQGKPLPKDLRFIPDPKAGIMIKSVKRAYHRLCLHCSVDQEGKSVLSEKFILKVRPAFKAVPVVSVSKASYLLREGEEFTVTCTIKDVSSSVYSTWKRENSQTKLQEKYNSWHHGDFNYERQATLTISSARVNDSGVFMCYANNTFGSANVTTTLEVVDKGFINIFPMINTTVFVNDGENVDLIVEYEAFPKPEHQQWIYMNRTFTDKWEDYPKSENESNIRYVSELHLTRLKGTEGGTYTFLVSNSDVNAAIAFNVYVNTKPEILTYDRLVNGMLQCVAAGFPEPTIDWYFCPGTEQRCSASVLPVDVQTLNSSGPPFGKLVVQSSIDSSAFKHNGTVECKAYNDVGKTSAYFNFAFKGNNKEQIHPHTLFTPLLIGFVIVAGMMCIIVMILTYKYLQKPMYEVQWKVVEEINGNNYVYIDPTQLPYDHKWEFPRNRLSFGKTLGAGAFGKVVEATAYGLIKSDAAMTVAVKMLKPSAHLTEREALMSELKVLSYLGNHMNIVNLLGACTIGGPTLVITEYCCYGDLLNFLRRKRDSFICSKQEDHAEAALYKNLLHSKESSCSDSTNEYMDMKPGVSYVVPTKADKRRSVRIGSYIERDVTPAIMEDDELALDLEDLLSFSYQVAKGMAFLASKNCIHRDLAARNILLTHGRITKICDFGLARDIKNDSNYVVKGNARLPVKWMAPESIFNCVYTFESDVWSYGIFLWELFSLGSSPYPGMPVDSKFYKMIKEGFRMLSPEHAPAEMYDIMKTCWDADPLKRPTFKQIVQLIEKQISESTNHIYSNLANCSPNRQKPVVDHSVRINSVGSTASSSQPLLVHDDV
# [28] = molecular target: Mitogen-activated protein kinase 13 (Homo sapiens, UniProt O15264); type: functional
# Sequence of Mitogen-activated protein kinase 13 (O15264 whole entry): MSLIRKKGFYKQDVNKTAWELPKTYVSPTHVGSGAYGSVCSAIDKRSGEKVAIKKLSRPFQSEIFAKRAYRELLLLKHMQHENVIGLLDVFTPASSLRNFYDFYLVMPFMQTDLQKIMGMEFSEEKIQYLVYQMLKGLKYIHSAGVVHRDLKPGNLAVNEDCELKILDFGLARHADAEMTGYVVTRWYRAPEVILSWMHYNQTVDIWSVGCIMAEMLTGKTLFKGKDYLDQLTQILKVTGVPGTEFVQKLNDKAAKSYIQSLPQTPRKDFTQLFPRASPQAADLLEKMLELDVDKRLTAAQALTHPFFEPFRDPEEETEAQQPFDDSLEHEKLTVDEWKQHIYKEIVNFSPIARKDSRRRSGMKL
# Sequence of DNA dC->dU-editing enzyme APOBEC-3A (P31941 whole entry): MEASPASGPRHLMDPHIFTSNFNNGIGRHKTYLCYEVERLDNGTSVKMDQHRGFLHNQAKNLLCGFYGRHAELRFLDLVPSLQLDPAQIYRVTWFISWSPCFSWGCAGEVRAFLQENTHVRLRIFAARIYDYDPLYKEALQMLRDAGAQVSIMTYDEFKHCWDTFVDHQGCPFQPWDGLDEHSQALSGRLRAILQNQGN
structure (smiles),measurement,setting,value
CCCn1c(=O)c2ccc(C(=O)NC(C)C)cc2n2c(=O)n(Cc3c(F)cccc3Cl)nc12,IC50,[1],> 99000 nM (inactive)
same,IC50,[2],> 99000 nM (inactive)
Cc1nn(CC(C)C(=O)O)c(C)c1Br (stereo unspecified),EC50,[3],5130 nM (active)
same,EC50,[4],4.75 µM (active) and 3.41 µM (active) and 12.7 µM (active)
same,EC50,[5],> 100 µM (inactive) and > 99 µM (inactive)
CC(C)(C)c1ccc(-c2nc3ccccc3s2)cc1,AC50,[6],25800 nM (active)
same,AC50,H4 [7],11 nM (active)
same,AC50,H4 [8],2.26 nM (active)
same,IC50,Tumor necrosis factor,246 nM (active)
same,IC50,HEK293,> 20000 nM (inactive)
same,IC50,[9],31.8 nM (active)
same,AC50,H4 [10],205 nM (active)
NS(=O)(=O)OCC1CC(n2ccc3c(NC4CCc5ccccc54)ncnc32)CC1O (stereo unspecified),Ki,[11],3160 nM (active)
same,Ki,[12],2510 nM (active)
CN(C)c1cc(-c2ccncc2)cc2[nH]nc(N)c12,Ki,[13],12.6 nM (active)
same,Ki,[14],1260 nM (active)
same,Ki,[15],398 nM (active)
same,Ki,[16],200 nM (active)
same,Ki,[17],126 nM (active)
same,Ki,[18],501 nM (active)
same,Ki,[19],12.6 nM (active)
same,Ki,[20],2000 nM (active)
same,Ki,[21],100 nM (active)
same,Ki,[22],5010 nM (active)
same,Ki,[23],100 nM (active)
CC1(O)CC(c2nc(-c3ccc4ccc(-c5ccccc5)nc4c3)c3c(N)nccn23)C1 (stereo unspecified),Ki,[24],316 nM (active)
same,Ki,[25],794 nM (active)
same,Ki,[26],316 nM (active)
same,Ki,[27],> 1260 nM (inactive)
same,Ki,[19],> 1260 nM (inactive)
same,Ki,[28],> 7940 nM (inactive)
